# From patent publication US20240147995A1, “INSECT NEUROPEPTIDES 5” (Solasta Bio Limited, priority 2022, published 2024)
# Assays:
# Plutella xylostella = experiment: Leaf dip assay testing against Plutella xylostella (mortality); assay type: in vivo; details: unformulated SB-P-70; FIG. 6, after 96 hours; compared to negative control vehicle and Chlorantraniliprole
# Method: The assay was carried out based on IRAC susceptibility test method 019 (https://irac-online.org/methods/aphids-adultnymphs/). Fill a small 4 cm wide 3 cm high dish with a 1% agar treatment solution of the active chemical or control (ensuring 1 cm gap between the agar and the lid) and leave to set. Dip a 2.5 cm leaf disc into 3 ml of treatment solution allowing the treatment to coat the leaf. Leave the disc to dry for 1 hour and place onto the set agar. Place insects (Plutella xylostella) onto each of the leaf discs. Each unit is sealed with a close-fitting, ventilated lid. Place the agar dishes in a small plastic tray lined with moist tissue paper and ensure the water trays in the bottom of the incubator are filled with clean water and place within the incubator. An assessment of mortality is made at 72, 96 and 120 hours. Leaf dip assays were performed with SB-P-70, and compared to a negative control vehicle and a current commercial insecticide Chlorantraniliprole. The activity of SB-P-70 is shown in FIG. 6; SB-P-70 has good activity whilst being eco-friendly and targeted to specific pests unlike broad spectrum chemical insecticides such as Chlorantraniliprole.
# Spodoptera frugiperda = experiment: Lepidoptera artificial diet assay against Spodoptera frugiperda (pupation and mortality); assay type: in vivo; details: unformulated SB-P-70; 1×10^−4 M in diet; L1 larvae; FIG. 8, after 168 hours; compared to negative control vehicle and DDT
# Source text: Frontier Lepidoptera artificial diet was made up by preparing agar at 1% and then mixing it with artificial diet powder. Peptide solution was aliquoted in 10 cells and diet poured straight onto it. The final concentration of the peptide was 1×10^−4 M, and each peptide was aliquoted in 10 cells. Once the diet solidified and cooled down, one L1 larvae was infested in each cell. The trays were sealed with heat and let larva were allowed to develop for 168 hrs. Finally, pupation and mortality were scored for. Lepidoptera artificial diet assays were performed with SB-P-70, and compared to a negative control vehicle and the insecticide dichlorodiphenyltrichloroethane (DDT).
substance,measurement,setting,value
[Hy]-KVKFSAWG-[NH2] (H-KVKFSAWG-NH2) [SB-P-70],"activity against Plutella xylostella (mortality, leaf dip assay)",Plutella xylostella,good activity
same,"activity against Spodoptera frugiperda (pupation and mortality, artificial diet assay)",Spodoptera frugiperda,much higher activity
